Assay results from ChEMBL document CHEMBL1201862, “PubChem BioAssay data set” (2004).
Counter-ions that a name gives are not always drawn.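 Each compound was tested at five concentrations against cells in 96-well plates for 48 hours. The concentration for 50% growth inhibition is given as GI50.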 Activity calls are given as the source filed them. Rule as the data show it: active = GI50 up to about 1.1 µM and inactive = higher.

Key:
Assay in all cases: NCI tumour cell line growth inhibition, 48 h
[1] = test system: PC-3
[2] = test system: HOP-92
[3] = test system: NCI-H460
[4] = test system: HT-29
[5] = test system: UO-31
[6] = test system: IGROV-1
[7] = test system: SF-539
[8] = test system: UACC-62
[9] = test system: K562
[10] = test system: NCI-H226
[11] = test system: SF-295
[12] = test system: MDA-N
[13] = test system: Hs-578T
[14] = test system: SN12C
[15] = test system: NCI-H23
[16] = test system: TK-10
[17] = test system: OVCAR-3
[18] = test system: BT-549
[19] = test system: NCI-H522
[20] = test system: CAKI-1

Measured: GI50

COc1cc(COC(=O)N2CCC2C(=O)O)c([N+](=O)[O-])cc1OC (centres undefined)
inactive: [1] > 100 µM | [2] > 100 µM | [3] > 100 µM | [4] > 100 µM | [5] > 100 µM | [6] > 100 µM | [7] > 100 µM | [8] > 100 µM | [9] > 100 µM | [10] > 100 µM | [11] > 100 µM | [12] > 100 µM | [13] > 100 µM | [14] > 100 µM | [15] > 100 µM | [16] > 100 µM | [17] > 100 µM | [18] > 100 µM

O=S1(=O)c2ccccc2NC(=S)CC1c1ccccc1 (centres undefined)
inactive: [1] > 100 µM | [3] > 100 µM | [4] > 100 µM | [19] > 100 µM | [20] > 100 µM | [5] > 100 µM | [6] > 100 µM | [8] > 100 µM | [9] > 100 µM | [10] > 100 µM | [11] 26.3 µM | [12] > 100 µM | [13] > 100 µM | [14] > 100 µM | [15] > 100 µM | [16] > 100 µM | [17] > 100 µM | [18] > 100 µM

CC(C)=C1C(=O)C[C@]2(C)C[C@H]3O[C@]3(C)CC[C@@H]3O[C@@]3(C)CC[C@@H]12
inactive: [1] > 50 µM | [2] > 50 µM | [3] > 50 µM | [4] > 50 µM | [19] 34 µM | [20] > 50 µM | [5] 30.3 µM | [6] > 50 µM | [7] > 50 µM | [8] > 50 µM | [9] 44.3 µM | [10] > 50 µM | [11] > 50 µM | [13] > 50 µM | [14] > 50 µM | [15] > 50 µM | [16] > 50 µM | [17] > 50 µM | [18] > 50 µM

CSCCCNC(=O)c1csc(-c2csc(CCN)n2)n1
inactive: [1] > 100 µM | [2] > 100 µM | [3] 91 µM | [4] 82.8 µM | [19] > 100 µM | [20] > 100 µM | [5] 38.6 µM | [6] 53.6 µM | [7] > 100 µM | [8] > 100 µM | [9] > 100 µM | [11] > 100 µM | [13] 56.8 µM | [14] 68.1 µM | [15] > 100 µM | [16] > 100 µM | [17] > 100 µM | [18] > 100 µM

O=C(OCCN1CCCCCC1)C(c1ccsc1)C1CCCCC1 (centres undefined) [CETIEDIL CITRATE]
inactive: [1] 18.4 µM | [2] 13.9 µM | [3] 16.2 µM | [4] 11.9 µM | [20] 14.5 µM | [5] 13.3 µM | [6] 11.1 µM | [7] 16.8 µM | [11] 17.9 µM | [12] 14 µM | [13] 20.7 µM | [14] 17.9 µM | [15] 18.5 µM | [16] 16 µM | [17] 15 µM | [18] 15.3 µM

CCOC(=O)C1CCCCc2sc(N)c(C#N)c21 (centres undefined)
inactive: [1] > 100 µM | [2] > 100 µM | [3] > 100 µM | [4] > 100 µM | [5] > 100 µM | [6] > 100 µM | [8] > 100 µM | [9] > 100 µM | [10] > 100 µM | [12] > 100 µM | [13] > 100 µM | [14] > 100 µM | [15] > 100 µM | [16] > 100 µM | [18] > 100 µM
